Experimental data published in publication PMC6033010, “A Targeted LC‐MS Strategy for Low‐Abundant HLA Class‐I‐Presented Peptide Detection Identifies Novel Human Papillomavirus T‐Cell Epitopes” (Proteomics, 2018).
Where a SMILES comes first, the peptide text is derived from it.

Each molecule was assayed against T1, HLA‐A2 (Homo sapiens, UniProt P04439, D140Y/D185E/D98H/E176V/E277Q/G131W/G231S/I119V/I121R/I166T/I218V/L300P/L318F/N151K/N90K/P208A/P217A/Q86G/Q94H/R138H/R169H/T345S) (assay: In vitro competition-based cellular binding assay). Conditions: acid-stripped BSM cells, β2M, 150 nM fluorescein-labeled reference peptide FLPSDC(Fl)FPSV, test peptide 0.78–100 μM, overnight 4 °C, flow cytometry; mean of at least three experimental replicates; read-out: Experimental binding affinity [IC50(μM)].
T1 construct: host or cells: BSM cells (HLA-A2+, HPV16-negative suspension cell line)
Protocol: In Vitro Competition Based Binding Assays: In vitro competition‐based binding assays were performed as described in ref. 30. In brief, BSM cells were treated with citric acid buffer to strip off naturally presented peptides. Cells were incubated overnight at 4 °C with β2M, a constant concentration (150 nM) of fluorescein‐labeled HLA‐A2‐binding reference peptide (FLPSDC(Fl)FPSV), and six different concentrations (0.78 –100 μM) of the respective investigated non‐labeled peptide, competing for HLA‐binding. Fluorescence was measured by flow cytometry and data processed with FlowJo 10 (TreeStar, Ashland, OR, USA). A logistic four‐parametric non‐linear regression calculation using SigmaPlot 13 (Systat‐Software, San José, CA, USA) was conducted to calculate binding affinity (IC50). […] The assay was performed with at least three biological replicates for binders and two for non‐binders.

Structure (SMILES)	IC50
CC[C@H](C)[C@H](NC(=O)[C@H](CC(=O)O)NC(=O)[C@H](Cc1c[nH]cn1)NC(=O)[C@@H](NC(=O)[C@@H](NC(=O)[C@@H](NC(=O)[C@H](CCC(N)=O)NC(=O)[C@H](CC(C)C)NC(=O)[C@@H](N)CCC(=O)O)[C@@H](C)O)[C@@H](C)O)[C@@H](C)CC)C(=O)O [E6_25–33] (H-ELQTTIHDI-OH)	36.9 µM
CSCC[C@H](NC(=O)[C@H](Cc1ccc(O)cc1)NC(=O)[C@H](CCC(=O)O)NC(=O)[C@H](Cc1c[nH]cn1)NC(=O)[C@H](CC(C)C)NC(=O)[C@@H](N)[C@@H](C)O)C(=O)N[C@@H](CC(C)C)C(=O)N[C@@H](CC(=O)O)C(=O)N[C@@H](CC(C)C)C(=O)N[C@@H](CCC(N)=O)C(=O)N1CCC[C@H]1C(=O)O [E7_7–17] (H-TLHEYMLDLQP-OH)	19.3 µM
CSCC[C@H](NC(=O)[C@H](Cc1ccc(O)cc1)NC(=O)[C@@H](N)CCC(=O)O)C(=O)N[C@@H](CC(C)C)C(=O)N[C@@H](CC(=O)O)C(=O)N[C@@H](CC(C)C)C(=O)N[C@@H](CCC(N)=O)C(=O)N1CCC[C@H]1C(=O)N[C@@H](CCC(=O)O)C(=O)N[C@H](C(=O)O)[C@@H](C)O [E7_10–19]	45.3 µM
CSCC[C@H](NC(=O)[C@@H](N)Cc1ccc(O)cc1)C(=O)N[C@@H](CC(C)C)C(=O)N[C@@H](CC(=O)O)C(=O)N[C@@H](CC(C)C)C(=O)N[C@@H](CCC(N)=O)C(=O)N1CCC[C@H]1C(=O)N[C@@H](CCC(=O)O)C(=O)O [E7_11–18] (H-YMLDLQPE-OH)	8.07 µM
CSCC[C@H](NC(=O)[C@@H](N)Cc1ccc(O)cc1)C(=O)N[C@@H](CC(C)C)C(=O)N[C@@H](CC(=O)O)C(=O)N[C@@H](CC(C)C)C(=O)N[C@@H](CCC(N)=O)C(=O)N1CCC[C@H]1C(=O)N[C@@H](CCC(=O)O)C(=O)N[C@H](C(=O)N[C@H](C(=O)N[C@@H](CC(=O)O)C(=O)O)[C@@H](C)O)[C@@H](C)O [E7_11–21]	2.37 µM
CSCC[C@H](N)C(=O)N[C@@H](CC(C)C)C(=O)N[C@@H](CC(=O)O)C(=O)N[C@@H](CC(C)C)C(=O)N[C@@H](CCC(N)=O)C(=O)N1CCC[C@H]1C(=O)N[C@@H](CCC(=O)O)C(=O)N[C@H](C(=O)O)[C@@H](C)O [E7_12–19] (H-MLDLQPET-OH)	53.7 µM
CC[C@H](C)[C@H](N)C(=O)N[C@@H](CCCNC(=N)N)C(=O)N[C@H](C(=O)N[C@@H](CC(C)C)C(=O)N[C@@H](CCC(=O)O)C(=O)N[C@@H](CC(=O)O)C(=O)N[C@@H](CC(C)C)C(=O)N[C@@H](CC(C)C)C(=O)N[C@@H](CCSC)C(=O)NCC(=O)N[C@H](C(=O)O)[C@@H](C)O)[C@@H](C)O [E7_76–86] (H-IRTLEDLLMGT-OH)	31.9 µM
CSCC[C@H](NC(=O)[C@H](CC(C)C)NC(=O)[C@H](CC(C)C)NC(=O)[C@H](CC(=O)O)NC(=O)[C@H](CCC(=O)O)NC(=O)[C@H](CC(C)C)NC(=O)[C@@H](NC(=O)[C@@H](N)CCCNC(=N)N)[C@@H](C)O)C(=O)NCC(=O)N[C@H](C(=O)O)[C@@H](C)O [E7_77–86]	66.9 µM
CSCC[C@H](NC(=O)[C@H](CC(C)C)NC(=O)[C@H](CC(C)C)NC(=O)[C@H](CC(=O)O)NC(=O)[C@H](CCC(=O)O)NC(=O)[C@H](CC(C)C)NC(=O)[C@@H](NC(=O)[C@@H](N)CCCNC(=N)N)[C@@H](C)O)C(=O)NCC(=O)N[C@H](C(=O)N[C@@H](CC(C)C)C(=O)O)[C@@H](C)O [E7_77–87] (H-RTLEDLLMGTL-OH)	2.69 µM
CSCC[C@H](NC(=O)[C@H](CC(C)C)NC(=O)[C@H](CC(C)C)NC(=O)[C@H](CC(=O)O)NC(=O)[C@H](CCC(=O)O)NC(=O)[C@H](CC(C)C)NC(=O)[C@@H](N)[C@@H](C)O)C(=O)NCC(=O)N[C@H](C(=O)O)[C@@H](C)O [E7_78–86] (H-TLEDLLMGT-OH)	64.6 µM
CC[C@H](C)[C@H](NC(=O)CNC(=O)[C@H](CC(C)C)NC(=O)[C@@H](NC(=O)CNC(=O)[C@H](CCSC)NC(=O)[C@H](CC(C)C)NC(=O)[C@H](CC(C)C)NC(=O)[C@H](CC(=O)O)NC(=O)[C@@H](N)CCC(=O)O)[C@@H](C)O)C(=O)N[C@H](C(=O)O)C(C)C [E7_80–90] (H-EDLLMGTLGIV-OH)	14.2 µM
CC[C@H](C)[C@H](NC(=O)CNC(=O)[C@H](CC(C)C)NC(=O)[C@@H](NC(=O)CNC(=O)[C@H](CCSC)NC(=O)[C@H](CC(C)C)NC(=O)[C@H](CC(C)C)NC(=O)[C@@H](N)CC(=O)O)[C@@H](C)O)C(=O)N[C@H](C(=O)O)C(C)C [E7_81–90] (H-DLLMGTLGIV-OH)	81 µM
